Source: article PMC11428108 (Frontiers in Molecular Neuroscience, 2024)
Several values for one entry are separate records, joined by “and”; a condition that tells them apart may be missing. Identical values can stand only once. Entries after “also recorded” stand apart in the source; their conditions may differ. Like-named read-outs stand apart in the source and are kept apart here.

Experiments:
[1] = system: Chrna5^+/+ and Chrna5^−/− mice; experiment: Open-field locomotor activity, SR9883 alone or with nicotine; assay type: in vivo; conditions: for Cumulative distance traveled during 60 min session: SR9883 5 or 10 mg kg^−1 IP
Experimental: Locomotor activity was assessed in an open-field apparatus (40 cm × 40 cm; Omnitech Electronics Inc.) under low illumination (~30 radiometric lux). Mice were habituated to the apparatus for 60 min on the day before treatments commenced. On test days, mice received a total of two systemic injections. First, mice were injected intraperitoneally with SR9883 (0, 5, 10 mg kg^−1) and returned to their home cages. […] Mice were then placed in the center of the apparatus and the total distance they traveled was recorded for 60 min (Fusion software, Omnitech Electronics Inc.). Concentration-response curves of SR9883 actions in nAChR-expressing HEK cells and oocytes were fitted to the Hill equation using a nonlinear least squares curve fit method and efficacy and potency values were calculated as previously described ([Wang et al., 2015]). Plasma and brain levels of SR9983 after oral administration were compared using a two-tailed paired t test. […] For the ICSS threshold experiment, percentages of baseline reward threshold scores were calculated by expressing the absolute threshold scores as a percentage of the scores obtained during baseline. The baseline values were the mean thresholds on the three sessions prior to drug injections. Response latency data were analyzed in the same manner as the threshold data. […] Effects of SR9883 on responding for food pellets in rats was analyzed by a two-tailed paired t test. […] Significant main or interaction effects in ANOVAs were followed by Bonferroni or Newman–Keuls post-hoc tests as appropriate. All statistical analyses were performed using GraphPad Prism software with α set to 0.05.

(α4)2(β2)2α4 nAChRs = target: T1, (α4)2(β2)2α4 nAChRs (Homo sapiens, UniProt P17787+P43681); experiment: nAChR-mediated currents in oocytes expressing (α4)2(β2)2α4 nAChRs (unpublished observations); assay type: cell-based; conditions: pure stoichiometry
T1 construct: expressed in transfected cells
T1 sequence (P43681 29-627 limits assumed): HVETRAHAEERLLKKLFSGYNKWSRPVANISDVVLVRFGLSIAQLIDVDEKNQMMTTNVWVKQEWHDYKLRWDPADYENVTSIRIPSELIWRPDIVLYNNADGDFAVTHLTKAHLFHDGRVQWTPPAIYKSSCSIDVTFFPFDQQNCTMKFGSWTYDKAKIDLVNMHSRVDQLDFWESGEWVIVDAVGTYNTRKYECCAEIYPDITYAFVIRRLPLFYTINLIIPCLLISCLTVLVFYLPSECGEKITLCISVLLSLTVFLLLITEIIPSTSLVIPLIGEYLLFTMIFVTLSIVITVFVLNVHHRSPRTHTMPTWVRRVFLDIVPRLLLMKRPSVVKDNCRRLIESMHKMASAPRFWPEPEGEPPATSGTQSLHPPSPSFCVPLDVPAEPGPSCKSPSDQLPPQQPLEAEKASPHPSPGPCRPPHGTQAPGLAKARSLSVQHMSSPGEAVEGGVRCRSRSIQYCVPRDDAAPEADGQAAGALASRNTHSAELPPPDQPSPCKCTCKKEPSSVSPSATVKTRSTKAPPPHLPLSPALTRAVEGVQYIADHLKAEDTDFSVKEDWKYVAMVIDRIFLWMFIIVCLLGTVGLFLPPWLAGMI
T1 sequence (P17787 26-502): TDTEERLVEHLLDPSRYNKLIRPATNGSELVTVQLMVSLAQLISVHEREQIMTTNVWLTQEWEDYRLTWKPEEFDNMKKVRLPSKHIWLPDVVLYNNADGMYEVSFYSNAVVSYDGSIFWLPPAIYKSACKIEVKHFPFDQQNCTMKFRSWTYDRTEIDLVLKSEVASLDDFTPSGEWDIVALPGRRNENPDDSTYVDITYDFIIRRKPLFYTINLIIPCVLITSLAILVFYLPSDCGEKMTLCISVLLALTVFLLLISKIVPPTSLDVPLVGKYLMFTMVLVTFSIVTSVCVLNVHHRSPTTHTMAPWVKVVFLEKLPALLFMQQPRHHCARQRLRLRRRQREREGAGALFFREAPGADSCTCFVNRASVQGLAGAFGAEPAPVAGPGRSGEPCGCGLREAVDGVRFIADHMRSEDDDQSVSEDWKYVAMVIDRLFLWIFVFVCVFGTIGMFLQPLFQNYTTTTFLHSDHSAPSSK
Experimental: (§1) Concentration-response curves of SR9883 actions in nAChR-expressing HEK cells and oocytes were fitted to the Hill equation using a nonlinear least squares curve fit method and efficacy and potency values were calculated as previously described ([Wang et al., 2015]). Plasma and brain levels of SR9983 after oral administration were compared using a two-tailed paired t test. […] For the ICSS threshold experiment, percentages of baseline reward threshold scores were calculated by expressing the absolute threshold scores as a percentage of the scores obtained during baseline. The baseline values were the mean thresholds on the three sessions prior to drug injections. Response latency data were analyzed in the same manner as the threshold data. […] Effects of SR9883 on responding for food pellets in rats was analyzed by a two-tailed paired t test. […] Significant main or interaction effects in ANOVAs were followed by Bonferroni or Newman–Keuls post-hoc tests as appropriate. All statistical analyses were performed using GraphPad Prism software with α set to 0.05.

[2] = Brain penetration: plasma and brain levels 120 min after oral dosing; assay type: in vivo, C57BL/6J mice; conditions: C57BL/6J, mouse, 20 mg kg^−1 PO
Experimental: Mice prepared with intravenous catheters and treated with SR9883 via oral (10 mg kg^−1) or intravenous (1 mg kg^−1) routes of administration. Blood samples were collected up to 240 min after treatment into lithium heparin coated tubes (Ram Scientific) and stored on wet ice. Blood samples were later centrifuged for 3 min at 5,000 RPM to separate plasma from red blood cells. Plasma was collected into a fresh tube and stored at −80°C. A separate group of mice was treated with SR9883 (20 mg kg^−1 PO) and killed by cervical dislocation 120 min later. Their brains were collected and stored at −80°C. SR9883 levels were quantified in plasma and brain by mass spectrometry using an ABSciex 5,500 instrument and using multiple reaction monitoring as previously described ([Radnai et al., 2021]). Brain samples were homogenized in saline and then immediately treated with twice the amount (v:v) of acetonitrile to extract the compound. Plasma samples were directly treated with acetonitrile. Samples were filtered through a 0.2 μm filter plate prior to injection onto the LC–MS/MS as previously described ([Radnai et al., 2021]).

[3] = system: human (α3)2(β2)2α3/β2 (α3β2*) nAChRs; experiment: FLEXstation membrane potential assay in HEK cells stably expressing α3β2* nAChRs; assay type: cell-based; conditions: SR9883 0.0005–10 μM
From the text: (§2) Human embryonic kidney (HEK) cell lines stably expressing human (α4)2(β2)2β2/α4 (α4β2*) nAChRs, (α4)2(β2)2α5 nAChRs, (α4)2(β2)2β3 nAChRs, (α3)2(β4)2α3/β4 (α3β4*) nAChRs, (α3)2(β2)2α3/β2 (α3β2*) nAChRs, (α3)2(β4)2α5 nAChRs, or (α3)2(β2)2α5 nAChRs were maintained as described previously ([Wang et al., 2015]; [Kuryatov et al., 2005]; [Caligiuri et al., 2022]). The FLEXstation bench top scanning fluorometer from Molecular Devices was used to assay nAChR function in these cells, according to published protocols ([Wang et al., 2015]; [Kuryatov et al., 2005]). The membrane potential kit (Molecular Devices) was used according to the manufacturer’s protocols. Serial dilutions of SR9883 were manually added to the assay plate 15 min prior to recording. […] Potency and efficacy were calculated using the Hill equation as described previously ([Wang et al., 2015]).
(§3) Concentration-response curves of SR9883 actions in nAChR-expressing HEK cells and oocytes were fitted to the Hill equation using a nonlinear least squares curve fit method and efficacy and potency values were calculated as previously described ([Wang et al., 2015]). […] For the ICSS threshold experiment, percentages of baseline reward threshold scores were calculated by expressing the absolute threshold scores as a percentage of the scores obtained during baseline. […] Response latency data were analyzed in the same manner as the threshold data. […]

[4] = system: α4β2*, (α4)2(β2)2α5, and (α4)2(β2)2β3 nAChRs; experiment: FLEXstation assay, summary over α4β2* stoichiometries with low-affinity agonist binding sites; assay type: cell-based, human
From the text: as §2, §3

[5] = target: T2, human (α4)2(β2)2β3 nAChRs (Homo sapiens, UniProt P17787+P43681+Q05901); experiment: FLEXstation membrane potential assay in HEK cells stably expressing (α4)2(β2)2β3 nAChRs; assay type: cell-based; conditions: ±SEM
T2 construct: expressed in transfected cells
T2 sequence (P43681 29-627 limits assumed): as the sequence (P43681 29-627 limits assumed) above
T2 sequence (P17787 26-502): as the sequence (P17787 26-502) above
T2 sequence (Q05901 25-458 limits assumed): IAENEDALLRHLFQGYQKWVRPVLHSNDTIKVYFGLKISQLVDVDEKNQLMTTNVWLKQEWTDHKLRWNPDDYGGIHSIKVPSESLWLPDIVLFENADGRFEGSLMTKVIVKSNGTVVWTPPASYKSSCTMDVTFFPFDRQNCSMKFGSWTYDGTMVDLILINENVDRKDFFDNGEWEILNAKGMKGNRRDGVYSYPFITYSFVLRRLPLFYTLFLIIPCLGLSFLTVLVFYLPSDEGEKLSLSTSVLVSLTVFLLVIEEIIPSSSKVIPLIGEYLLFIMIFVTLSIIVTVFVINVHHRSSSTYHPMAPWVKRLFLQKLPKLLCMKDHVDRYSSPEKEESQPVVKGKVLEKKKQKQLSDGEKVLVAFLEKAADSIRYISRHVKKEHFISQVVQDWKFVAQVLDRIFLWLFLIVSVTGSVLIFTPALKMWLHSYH
From the text: (§4) Human embryonic kidney (HEK) cell lines stably expressing human (α4)2(β2)2β2/α4 (α4β2*) nAChRs, (α4)2(β2)2α5 nAChRs, (α4)2(β2)2β3 nAChRs, (α3)2(β4)2α3/β4 (α3β4*) nAChRs, (α3)2(β2)2α3/β2 (α3β2*) nAChRs, (α3)2(β4)2α5 nAChRs, or (α3)2(β2)2α5 nAChRs were maintained as described previously ([Wang et al., 2015]; [Kuryatov et al., 2005]; [Caligiuri et al., 2022]). The FLEXstation bench top scanning fluorometer from Molecular Devices was used to assay nAChR function in these cells, according to published protocols ([Wang et al., 2015]; [Kuryatov et al., 2005]). The membrane potential kit (Molecular Devices) was used according to the manufacturer’s protocols. Serial dilutions of SR9883 were manually added to the assay plate 15 min prior to recording. […] Compound dilutions were prepared in V-shaped 96-well plates (Fisher Scientific Co.) and added to cell culture wells at a rate of 20 μL s^−1 during recording. Cells were incubated at 29°C for 6–20 h prior to assays to upregulate nAChRs ([Wang et al., 2015]; [Kuryatov et al., 2005]). Data points were averaged from 3 to 4 responses from separate wells. Potency and efficacy were calculated using the Hill equation as described previously ([Wang et al., 2015]).
Concentration-response curves of SR9883 actions in nAChR-expressing HEK cells and oocytes were fitted to the Hill equation using a nonlinear least squares curve fit method and efficacy and potency values were calculated as previously described ([Wang et al., 2015]). Plasma and brain levels of SR9983 after oral administration were compared using a two-tailed paired t test. […] For the ICSS threshold experiment, percentages of baseline reward threshold scores were calculated by expressing the absolute threshold scores as a percentage of the scores obtained during baseline. The baseline values were the mean thresholds on the three sessions prior to drug injections. Response latency data were analyzed in the same manner as the threshold data. […] Effects of SR9883 on responding for food pellets in rats was analyzed by a two-tailed paired t test. […]

[6] = target: T3, human (α4)2(β2)2α5 nAChRs (Homo sapiens, UniProt P17787+P30532+P43681); experiment: FLEXstation membrane potential assay in HEK cells stably expressing (α4)2(β2)2α5 nAChRs; assay type: cell-based
T3 construct: expressed in transfected cells
T3 sequence (P43681 29-627 limits assumed): as the sequence (P43681 29-627 limits assumed) above
T3 sequence (P17787 26-502): as the sequence (P17787 26-502) above
T3 sequence (P30532 23-468): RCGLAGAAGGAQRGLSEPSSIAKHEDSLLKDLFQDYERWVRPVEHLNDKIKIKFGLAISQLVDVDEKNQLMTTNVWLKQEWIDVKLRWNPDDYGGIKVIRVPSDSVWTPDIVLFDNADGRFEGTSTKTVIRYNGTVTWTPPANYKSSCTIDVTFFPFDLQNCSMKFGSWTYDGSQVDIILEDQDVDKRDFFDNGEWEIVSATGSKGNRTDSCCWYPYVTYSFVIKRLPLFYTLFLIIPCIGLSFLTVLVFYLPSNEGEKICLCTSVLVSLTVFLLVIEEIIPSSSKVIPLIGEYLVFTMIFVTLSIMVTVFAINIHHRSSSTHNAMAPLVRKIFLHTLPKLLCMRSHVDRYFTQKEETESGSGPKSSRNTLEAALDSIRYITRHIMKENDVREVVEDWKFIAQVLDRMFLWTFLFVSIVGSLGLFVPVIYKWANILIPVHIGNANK
From the text: as §4, §1

[7] = system: human (α3)2(β4)2α3/β4 (α3β4*) nAChRs; experiment: FLEXstation membrane potential assay in HEK cells stably expressing α3β4* nAChRs; assay type: cell-based; conditions: SR9883 0.0005–10 μM
From the text: as §2, §3

nAChR-mediated currents ((α4)2(β2)2α4 nAChRs): enhanced nAChR-mediated currents | concentration at 120 min ([2]; brain, read-out: Brain SR9883 level): ~4.5 µM and ~1100 ng/mL | concentration at 120 min ([2]; plasma, read-out: Plasma SR9883 level): ~2600 ng/mL and ~11 µM | EC50 (enhancement of response to EC20-30 nicotine) [3]: no effect; also recorded: No enhancement | EC50 ([4]; enhancement of the effect of nicotine, read-out: EC50 values, range over stoichiometries): 200 to 400 nM | EC50 ([5]; SR9883 0.0005–10 μM on response to EC20-30 nicotine, HEK cells): 224 ± 149 nM | nHill ([5]; SR9883 0.0005–10 μM on response to EC20-30 nicotine): 0.8567 ± 0.3792 | Efficacy ([5]; response to EC20-30 nicotine with SR9883 relative to nicotine alone): 96.44 ± 15.93% | Effect on maximum response to nicotine ([6]; SR9883 10 μM, nicotine 0.001–50 μM): no effect | EC50 ([6]; SR9883 0.0005–10 μM on response to EC20-30 nicotine, HEK cells, ±SEM): 321 ± 98.2 nM | nHill ([6]; SR9883 0.0005–10 μM on response to EC20-30 nicotine, ±SEM): 0.8620 ± 0.1564 | Efficacy ([6]; response to EC20-30 nicotine with SR9883 relative to nicotine alone, ±SEM): 146.18 ± 10.93% | EC50 (enhancement of response to EC20-30 nicotine) [7]: no effect; also recorded: No enhancement
SMILES: N#Cc1cccc(-n2nnc(-c3cccnc3)n2)c1 [SR9883, 3-(5-(pyridin-3-yl)-2H-tetrazol-2-yl)benzonitrile]
Locomotor activity (total distance traveled) vs vehicle ([1]; SR9883 5 mg kg^−1, nicotine-injected Chrna5^+/+ and Chrna5^−/− mice, p = 0.0002): reduced | Locomotor activity (total distance traveled) vs vehicle ([1]; SR9883 10 mg kg^−1, nicotine-injected Chrna5^+/+ and Chrna5^−/− mice, p = 0.0049): reduced | Cumulative distance traveled during 60 min session ([1]; nicotine (0.25 mg kg^−1 SC)-injected Chrna5^+/+ mice, Dose x Time p = 0.0047): decreased | Cumulative distance traveled during 60 min session ([1]; nicotine (0.25 mg kg^−1 SC)-injected Chrna5^−/− mice, Dose x Time p = 0.0946, not significant): tended to be decreased | Cumulative distance traveled during 60 min session ([1]; saline-injected Chrna5^+/+ mice): unchanged | Cumulative distance traveled during 60 min session ([1]; saline-injected Chrna5^−/− mice): unchanged | Concentration inducing maximal enhancement of nAChR signaling ([4]; EC20-30 nicotine): ~ 3 μM
